Assay in all cases: relative viability (nuclei count vs DMSO), 5 days (fraction); higher = more cells survive
Compound in the assay “CX-5461 + Foretinib”: Cc1cnc(CNC(=O)c2c(=O)c3ccc(N4CCCN(C)CC4)nc3n3c2sc2ccccc23)cn1 [CX-5461] + COc1cc2c(Oc3ccc(NC(=O)C4(C(=O)Nc5ccc(F)cc5)CC4)cc3F)ccnc2cc1OCCCN1CCOCC1 [Foretinib] (partner 0.25 µM)
The method in brief:
(§1)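 Five library-drug doses in √10 steps were combined with a fixed anchor-drug dose, or a single drug was given alone, by pin tool to lung cancer cell lines in 1536-well plates the day after seeding. Nuclei were stained and counted after 5 days. Relative viability is the nuclei count in treated wells over that in vehicle wells, taken as the median of duplicate plates.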

Compound in the assay “CX-5461 + Lapatinib”: Cc1cnc(CNC(=O)c2c(=O)c3ccc(N4CCCN(C)CC4)nc3n3c2sc2ccccc23)cn1 [CX-5461] + CS(=O)(=O)CCNCc1ccc(-c2ccc3ncnc(Nc4ccc(OCc5cccc(F)c5)c(Cl)c4)c3c2)o1 [Lapatinib] (partner 2 µM)
The method in brief: as §1

Compound in the assay “IMD-0354 + AZD7762”: O=C(Nc1cc(C(F)(F)F)cc(C(F)(F)F)c1)c1cc(Cl)ccc1O [IMD-0354] + NC(=O)Nc1cc(-c2cccc(F)c2)sc1C(=O)N[C@H]1CCCNC1 [AZD7762] (partner 0.2 µM)
The method in brief: as §1

Compound in the assay “IMD-0354 + OSI-027”: O=C(Nc1cc(C(F)(F)F)cc(C(F)(F)F)c1)c1cc(Cl)ccc1O [IMD-0354] + COc1cccc2cc(-c3nc([C@H]4CC[C@H](C(=O)O)CC4)n4ncnc(N)c34)[nH]c12 [OSI-027] (partner 0.5 µM)
The method in brief:
as §1

For the cell line HARA, the relative viability was 1.01 with CX-5461 + Foretinib (first compound 0.01 µM); 1.09 with CX-5461 + Foretinib (first compound 0.03162 µM); 0.806 with CX-5461 + Foretinib (first compound 0.1 µM); 0.89 with CX-5461 + Foretinib (first compound 1 µM); 0.904 with CX-5461 + Lapatinib (first compound 0.01 µM); 0.921 with CX-5461 + Lapatinib (first compound 0.03162 µM). In addition, the relative viability amounted to 0.84 with CX-5461 + Lapatinib (first compound 0.1 µM); 0.861 in the assay with CX-5461 + Lapatinib (first compound 0.3162 µM); 0.348 in the assay with CX-5461 + Lapatinib (first compound 1 µM); 0.281 with IMD-0354 + AZD7762 (first compound 0.04 µM); 0.357 with IMD-0354 + AZD7762 (first compound 0.1265 µM); 0.38 with IMD-0354 + AZD7762 (first compound 0.4 µM). The relative viability with IMD-0354 + AZD7762 (first compound 1.265 µM) is 0.177; with IMD-0354 + AZD7762 (first compound 4 µM) it was 0.141; with IMD-0354 + OSI-027 (first compound 0.04 µM), 0.576; with IMD-0354 + OSI-027 (first compound 0.1265 µM) it was 0.542; with IMD-0354 + OSI-027 (first compound 0.4 µM), 0.179; with IMD-0354 + OSI-027 (first compound 1.265 µM), 0.148. Moreover, in the assay with IMD-0354 + OSI-027 (first compound 4 µM), the relative viability was determined as 0.0924.

Regarding HCC-15, the relative viability with CX-5461 + Foretinib (first compound 0.01 µM) was 1.11; with CX-5461 + Foretinib (first compound 0.03162 µM), 1.02; with CX-5461 + Foretinib (first compound 0.1 µM), 0.978; in the assay with CX-5461 + Foretinib (first compound 0.3162 µM) it was 0.895; in the assay with CX-5461 + Foretinib (first compound 1 µM) it was 0.591; with CX-5461 + Lapatinib (first compound 0.01 µM), 0.886. The relative viability was found to be 0.914 with CX-5461 + Lapatinib (first compound 0.03162 µM); 0.869 with CX-5461 + Lapatinib (first compound 0.1 µM); 0.264 with CX-5461 + Lapatinib (first compound 0.3162 µM); 0.605 in the assay with CX-5461 + Lapatinib (first compound 1 µM); 1.07 with IMD-0354 + AZD7762 (first compound 0.04 µM); 1.13 with IMD-0354 + AZD7762 (first compound 0.1265 µM). The relative viability with IMD-0354 + AZD7762 (first compound 0.4 µM) was 0.923; in the assay with IMD-0354 + AZD7762 (first compound 1.265 µM), 0.648; in the assay with IMD-0354 + AZD7762 (first compound 4 µM), 0.157; in the assay with IMD-0354 + OSI-027 (first compound 0.04 µM), 0.656; in the assay with IMD-0354 + OSI-027 (first compound 0.1265 µM), 0.615; in the assay with IMD-0354 + OSI-027 (first compound 0.4 µM), 0.366. For the same cell line, the relative viability with IMD-0354 + OSI-027 (first compound 1.265 µM) was found to be 0.164; with IMD-0354 + OSI-027 (first compound 4 µM) it was 0.131.

On to HCC-44, for which the relative viability in the assay with CX-5461 + Lapatinib (first compound 0.01 µM) was determined as 0.972; with CX-5461 + Lapatinib (first compound 0.03162 µM), 1.01; with CX-5461 + Lapatinib (first compound 0.1 µM), 0.994; in the assay with CX-5461 + Lapatinib (first compound 0.3162 µM) it was 1.01; with CX-5461 + Lapatinib (first compound 1 µM) it was 0.69; with IMD-0354 + AZD7762 (first compound 0.04 µM), 0.988. In addition, the relative viability amounted to 1.01 with IMD-0354 + AZD7762 (first compound 0.1265 µM); 1.01 in the assay with IMD-0354 + AZD7762 (first compound 0.4 µM); 0.855 in the assay with IMD-0354 + AZD7762 (first compound 1.265 µM); 0.314 in the assay with IMD-0354 + AZD7762 (first compound 4 µM); 0.556 in the assay with IMD-0354 + OSI-027 (first compound 0.04 µM); 0.562 with IMD-0354 + OSI-027 (first compound 0.1265 µM). For the same cell line, the relative viability worked out at 0.334 with IMD-0354 + OSI-027 (first compound 0.4 µM), 0.285 with IMD-0354 + OSI-027 (first compound 1.265 µM) and 0.215 with IMD-0354 + OSI-027 (first compound 4 µM).

Regarding HCC-78, the relative viability came out at 0.596 with CX-5461 + Foretinib (first compound 0.01 µM); 0.503 in the assay with CX-5461 + Foretinib (first compound 0.03162 µM); 0.573 with CX-5461 + Foretinib (first compound 0.1 µM); 0.602 with CX-5461 + Foretinib (first compound 0.3162 µM); 0.589 with CX-5461 + Foretinib (first compound 1 µM); 1 in the assay with CX-5461 + Lapatinib (first compound 0.01 µM). In addition, the relative viability with CX-5461 + Lapatinib (first compound 0.03162 µM) amounted to 0.916; with CX-5461 + Lapatinib (first compound 0.1 µM), 0.734; in the assay with CX-5461 + Lapatinib (first compound 0.3162 µM) it was 0.244; in the assay with CX-5461 + Lapatinib (first compound 1 µM) it was 0.565; with IMD-0354 + AZD7762 (first compound 0.04 µM), 0.783; with IMD-0354 + AZD7762 (first compound 0.1265 µM), 0.658. The relative viability in the assay with IMD-0354 + AZD7762 (first compound 0.4 µM) is 0.543; in the assay with IMD-0354 + AZD7762 (first compound 1.265 µM), 0.672; in the assay with IMD-0354 + AZD7762 (first compound 4 µM), 0.485; in the assay with IMD-0354 + OSI-027 (first compound 0.04 µM), 0.321; with IMD-0354 + OSI-027 (first compound 0.1265 µM) it was 0.363; in the assay with IMD-0354 + OSI-027 (first compound 0.4 µM), 0.314. In addition, the figures for the relative viability with IMD-0354 + OSI-027 (first compound 1.265 µM) and in the assay with IMD-0354 + OSI-027 (first compound 4 µM) were 0.296 and 0.283, respectively.

Source of the values: the supplement of paper PMC10307832.
